Test results reported in patent publication US20230286983A1 (4E Therapeutics, Inc., priority 2020, published 2023).

Key:
MNK1 = MNK1 (Homo sapiens, UniProt Q9BUB5); assay: MNK1 substrate phosphorylation assay; format: biochemical; conditions: recombinant human kinase
MNK2 = MNK2 (Homo sapiens, UniProt Q9HBH9); assay: MNK2 substrate phosphorylation assay; format: biochemical; conditions: recombinant human kinase
[1] = test system: eIF4E phosphorylation at Serine 209 in the human embryonic kidney (HEK) 293 cell line; assay: eIF4E phosphorylation in HEK 293 cells (fluorescent plate reader); format: cell-based; conditions: eIF4E phosphorylation at Serine 209, 2 hours exposure
Experimental: The ability of MNK inhibitors described herein to inhibit eIF4E phosphorylation at Serine 209 in the human embryonic kidney (HEK) 293 cell line was tested by exposing the cells to compound for 2 hours and then measuring eIF4E phosphorylation with a phosphorylation-specific antibody in a fluorescent plate reader. These experiments were done with HEK-293 cells plated on 96 well plates. Following treatment, cells were fixed with ice cold methanol for 10 min and then washed in 1× phosphate buffered saline (PBS) and the permeabilized with 0.02% Triton X-100 in 10% normal goat serum made up in PBS. Primary antibody was applied overnight at a concentration dilution of 1:2000 (p-eIF4E antibody from Cell Signaling ab76256). Following washing, cells were then exposed to secondary antibody conjugated to alexa-fluor 488 and then visualized on a Syngergy HTX plate reader. Fluorescence for p-eIF4E was measured and normalized to total DAPI fluorescence to determine the percentage of eIF4E phosphorylation in each well. Data were plotted in Graphpad Prism V8 to determine concentration-response effects and calculate IC50 values.

MDCK-MDR1 = MDCK-MDR1 permeability (blood brain barrier permeability); format: in vitro ADME, Canine; conditions: 5 μM; for Papp A-B: Apical to basolateral transport; for Papp A-B / Papp B-A: average of two experiments; for Papp B-A: Basolateral to apical transport
P-gp (human MDR1, ABCB1) = assay: as above; format: in vitro ADME, Canine; conditions: dog; for efflux ratio at 5 μM: MDCK-MDR1, 5 μM, read-out: Efflux ratio (ratio B-A/A-B); for Papp A→B at 5 μM: MDCK-MDR1, Apical to basolateral transport; for Papp A→B at 5 μM / Papp B→A at 5 μM: average of two experiments; for Papp B→A at 5 μM: MDCK-MDR1, Basolateral to apical transport
[2] = Liver microsome stability, mouse; format: in vitro ADME; conditions: for half-life: mouse, liver microsomes
[3] = test system: eIF4E phosphorylation at Serine 209 in Karpas 299; assay: eIF4E phosphorylation in Karpas 299 cells (sandwich ELISA); format: cell-based; conditions: Homo sapiens, read-out: Karpas 299 cell IC50
Experimental: The ability of MNK inhibitors described herein to inhibit eIF4E phosphorylation at Serine 209 in Karpas 299, Human Non-Hodgkin's Ki-positive Large Cell Lymphoma cell line was tested by sandwich enzyme linked immune-absorbance assay.

[4] = Liver microsome stability, rat; format: in vitro ADME; conditions: Rat liver microsomes (#); for microsomal CLint: read-out: CLint rodent; for half-life: read-out: Rodent liver microsomes t1/2
[5] = Liver microsome stability, human; format: in vitro ADME; conditions: liver microsomes; for half-life: read-out: Human liver microsomes t1/2
[6] = target: Cdc2-like kinase 4 (CLK4) (Homo sapiens, UniProt Q9HAZ1); assay: Off-target kinase screen CLK4; format: biochemical; conditions: 1 μM test compound
Description: (§1) These kinases were chosen because they are the only known off-target hit kinases for eFT508. These assays were done using recombinant human kinases (CLK4, DRAK1 and PKG2) in a substrate phosphorylation assay. % activity remaining after MNK inhibitor treatment is indicated in Table 12.

[7] = target: T1, death-associated protein kinase-related apoptosis-inducing protein kinase 1 (DRAK1) (Homo sapiens, UniProt Q9UEE5); assay: Off-target kinase screen DRAK1; format: biochemical; conditions: 1 μM test compound
T1 sequence (Q9UEE5 1-414): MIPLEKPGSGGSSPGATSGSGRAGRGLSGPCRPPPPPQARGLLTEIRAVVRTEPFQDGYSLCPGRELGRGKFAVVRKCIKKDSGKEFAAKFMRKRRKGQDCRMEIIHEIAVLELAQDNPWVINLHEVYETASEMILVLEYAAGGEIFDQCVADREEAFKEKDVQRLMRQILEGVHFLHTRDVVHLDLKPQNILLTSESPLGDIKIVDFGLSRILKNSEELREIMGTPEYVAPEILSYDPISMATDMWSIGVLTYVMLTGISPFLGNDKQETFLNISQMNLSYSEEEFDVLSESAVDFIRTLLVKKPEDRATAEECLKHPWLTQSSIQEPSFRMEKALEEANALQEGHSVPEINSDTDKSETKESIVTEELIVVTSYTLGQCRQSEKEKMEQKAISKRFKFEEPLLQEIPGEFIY
Description: as §1

[8] = target: T2, protein kinase G 2 (PKG2) (Homo sapiens, UniProt Q13237); assay: Off-target kinase screen PKG2; format: biochemical; conditions: 1 μM test compound
T2 sequence (Q13237 1-762): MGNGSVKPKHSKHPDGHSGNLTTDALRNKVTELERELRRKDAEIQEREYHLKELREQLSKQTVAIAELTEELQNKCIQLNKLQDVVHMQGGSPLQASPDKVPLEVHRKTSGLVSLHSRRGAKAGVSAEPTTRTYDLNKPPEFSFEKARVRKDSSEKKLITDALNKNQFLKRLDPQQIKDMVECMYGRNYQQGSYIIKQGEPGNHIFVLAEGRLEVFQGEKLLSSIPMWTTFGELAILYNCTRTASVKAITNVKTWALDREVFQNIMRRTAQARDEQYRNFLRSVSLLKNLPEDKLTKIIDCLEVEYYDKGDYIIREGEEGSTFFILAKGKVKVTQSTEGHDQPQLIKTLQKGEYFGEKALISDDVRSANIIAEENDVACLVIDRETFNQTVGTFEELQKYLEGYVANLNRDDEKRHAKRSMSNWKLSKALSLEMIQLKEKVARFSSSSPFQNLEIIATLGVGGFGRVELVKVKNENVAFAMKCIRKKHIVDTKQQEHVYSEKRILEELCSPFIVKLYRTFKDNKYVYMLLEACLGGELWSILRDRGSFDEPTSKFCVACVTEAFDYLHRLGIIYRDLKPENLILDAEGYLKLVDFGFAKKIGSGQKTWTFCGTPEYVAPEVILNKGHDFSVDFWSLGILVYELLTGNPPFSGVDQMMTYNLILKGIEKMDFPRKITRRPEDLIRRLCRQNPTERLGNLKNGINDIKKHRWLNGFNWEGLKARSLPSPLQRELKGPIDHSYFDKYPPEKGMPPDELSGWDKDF
Description: as §1

[9] = mouse liver microsomes, Table 11b, read-out: T1/2
[10] = mouse liver microsomes, Table 11b

Sequence of MNK2 (Q9HBH9 whole entry): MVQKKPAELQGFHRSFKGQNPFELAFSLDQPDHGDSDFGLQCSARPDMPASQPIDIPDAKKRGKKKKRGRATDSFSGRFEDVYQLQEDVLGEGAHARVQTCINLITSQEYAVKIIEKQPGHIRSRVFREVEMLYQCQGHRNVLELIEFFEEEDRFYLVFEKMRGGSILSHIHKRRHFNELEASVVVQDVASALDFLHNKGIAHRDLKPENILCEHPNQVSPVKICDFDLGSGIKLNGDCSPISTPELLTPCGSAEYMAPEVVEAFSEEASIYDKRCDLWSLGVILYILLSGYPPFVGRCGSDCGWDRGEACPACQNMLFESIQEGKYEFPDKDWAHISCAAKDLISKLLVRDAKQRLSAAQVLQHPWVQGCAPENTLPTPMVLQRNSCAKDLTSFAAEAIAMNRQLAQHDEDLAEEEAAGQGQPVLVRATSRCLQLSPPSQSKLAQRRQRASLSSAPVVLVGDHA
Sequence of MNK1 (Q9BUB5 whole entry): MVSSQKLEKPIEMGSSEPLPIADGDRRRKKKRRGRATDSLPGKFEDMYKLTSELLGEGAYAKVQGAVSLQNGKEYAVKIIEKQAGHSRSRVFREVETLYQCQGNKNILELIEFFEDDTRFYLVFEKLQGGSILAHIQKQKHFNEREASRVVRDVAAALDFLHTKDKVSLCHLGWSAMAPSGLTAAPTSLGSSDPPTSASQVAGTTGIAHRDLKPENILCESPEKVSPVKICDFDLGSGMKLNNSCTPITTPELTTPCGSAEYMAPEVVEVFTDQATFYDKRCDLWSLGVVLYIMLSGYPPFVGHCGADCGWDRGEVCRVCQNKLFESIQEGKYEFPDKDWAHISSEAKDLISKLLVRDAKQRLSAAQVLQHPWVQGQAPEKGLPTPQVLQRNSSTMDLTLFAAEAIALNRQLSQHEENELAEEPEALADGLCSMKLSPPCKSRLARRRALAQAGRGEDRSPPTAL
Sequence of Cdc2-like kinase 4 (CLK4) (Q9HAZ1 whole entry): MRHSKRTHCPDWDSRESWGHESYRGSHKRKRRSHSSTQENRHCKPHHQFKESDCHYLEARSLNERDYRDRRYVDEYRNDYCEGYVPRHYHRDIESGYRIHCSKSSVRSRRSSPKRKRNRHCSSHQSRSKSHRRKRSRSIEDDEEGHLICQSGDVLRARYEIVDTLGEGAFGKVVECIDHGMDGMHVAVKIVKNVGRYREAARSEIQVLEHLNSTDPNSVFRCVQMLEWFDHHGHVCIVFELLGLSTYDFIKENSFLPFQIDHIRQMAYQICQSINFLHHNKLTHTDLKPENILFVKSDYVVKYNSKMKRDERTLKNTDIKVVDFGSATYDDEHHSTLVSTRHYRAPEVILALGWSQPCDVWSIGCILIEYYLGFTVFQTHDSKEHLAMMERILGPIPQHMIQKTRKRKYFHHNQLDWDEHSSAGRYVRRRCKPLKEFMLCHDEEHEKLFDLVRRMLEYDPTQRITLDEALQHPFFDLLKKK

Structure (SMILES)	IC50 (MNK1)	IC50 (MNK2)	Papp A-B (MDCK-MDR1)	Papp B-A (MDCK-MDR1)	efflux ratio at 5 μM (P-gp (human MDR1, ABCB1))	half-life [2, 9]	Efflux ratio (ratio B-A/A-B) (MDCK-MDR1)	T1/2 [2, 10]	Papp A→B at 5 μM (P-gp (human MDR1, ABCB1))	Papp B→A at 5 μM (P-gp (human MDR1, ABCB1))	microsomal CLint [5]	half-life [5]	IC50 [1]	IC50 ([1]; Homo sapiens, HEK293, 2 h)	other results
Cc1cc(Nc2cc(N)ncn2)c(=O)n2c1C(=O)NC21C[C@H]2COC[C@H]2C1 (single isomer, unassigned) [Compound 4ET-01-014A, 6′-((6-Aminopyrimidin-4-yl)amino)-8′-methyl-3a,4,6,6a-tetrahydro-1H,2′H,3H-spiro[cyclopenta[c]furan-5,3′-imidazo[1,5-a]pyridine]-1′,5′-dione]	26 nM	4 nM	24.9 ×10⁻⁶ cm/s	46.4 ×10⁻⁶ cm/s	1.9	4.5 h							28.4 nM		
Cc1cc(Nc2cc(N)ncn2)c(=O)n2c1C(=O)NC21C[C@H]2COC[C@H]2C1 (single isomer, unassigned) [Compound 4ET-01-014B, 6′-((6-Aminopyrimidin-4-yl)amino)-8′-methyl-3a,4,6,6a-tetrahydro-1H,2′H,3H-spiro[cyclopenta[c]furan-5,3′-imidazo[1,5-a]pyridine]-1′,5′-dione]	24.5 nM	4.6 nM	2.4 ×10⁻⁶ cm/s	5.8 ×10⁻⁶ cm/s			2.4	7.17 h					67.4 nM		
Cc1cc(Nc2cc(NC(=O)C3CC3)ncn2)c(=O)n2c1C(=O)NC21C[C@H]2CNC[C@H]2C1 (single isomer, unassigned) [Compound 4ET-03-050A, N-(6-((8′-Methyl-1′,5′-dioxo-1′,2,3,3a,4,5′,6,6a-octahydro-1H,2′H-spiro[cyclopenta[c]pyrrole-5,3′-imidazo[1,5-a]pyridin]-6′-yl)amino)pyrimidin-4-yl)cyclopropanecarboxamide]	35 nM	1.32 nM	2 ×10⁻⁶ cm/s	24.5 ×10⁻⁶ cm/s			12.4	1.2 h					2.6 nM		
Cc1cc(Nc2cc(N)ncn2)c(=O)n2c1C(=O)NC2(C)C [Compound 4ET-01-003, 6-((6-Aminopyrimidin-4-yl)amino)-3,3,8-trimethyl-2,3-dihydroimidazo[1,5-a]pyridine-1,5-dione]		2 nM							9.1 ×10⁻⁶ cm/s	13.3 ×10⁻⁶ cm/s	1.93 µL/min/mg	12 h			IC50 ([1]; Homo sapiens, HEK293): 10.5 nM; IC50 [3]: 35 nM; microsomal CLint [4]: 2.33 µL/min/mg; half-life [4]: 9.93 h; remaining activity at 1 µM [6]: 91%; remaining activity at 1 µM [7]: 65%; remaining activity at 1 µM [8]: 88%
Cc1cc(Nc2cc(N)ncn2)c(=O)n2c1C(=O)NC21CCC(NS(C)(=O)=O)CC1 (stereo not shown) [Compound 4ET-01-004, N-(6′-((6-Aminopyrimidin-4-yl)amino)-8′-methyl-1′,5′-dioxo-1′,5′-dihydro-2′H-spiro[cyclohexane-1,3′-imidazo[1,5-a]pyridin]-4-yl)methanesulfonamide]	104 nM	8.2 nM			4.4				0.1 ×10⁻⁶ cm/s	0.3 ×10⁻⁶ cm/s	2.56 µL/min/mg	9.02 h		33.6 nM	microsomal CLint [4]: 9.57 µL/min/mg; half-life [4]: 2.42 h; remaining activity at 1 µM [6]: 93%; remaining activity at 1 µM [7]: 76%; remaining activity at 1 µM [8]: 100%

Continued, in another order:

IC50 (MNK1)	IC50 (MNK2)	Papp A-B (MDCK-MDR1)	Papp B-A (MDCK-MDR1)	efflux ratio at 5 μM (P-gp (human MDR1, ABCB1))	half-life [2, 9]	Efflux ratio (ratio B-A/A-B) (MDCK-MDR1)	T1/2 [2, 10]	Papp A→B at 5 μM (P-gp (human MDR1, ABCB1))	Papp B→A at 5 μM (P-gp (human MDR1, ABCB1))	microsomal CLint [5]	half-life [5]	Structure (SMILES)	IC50 [1]	IC50 ([1]; Homo sapiens, HEK293, 2 h)	other results
40.9 nM	6.84 nM	0.7 ×10⁻⁶ cm/s	0.9 ×10⁻⁶ cm/s			1.3	7.07 h					Cc1cc(Nc2cc(NC(=O)C3CC3)ncn2)c(=O)n2c1C(=O)NC21C[C@H]2CNC[C@H]2C1 (single isomer, unassigned) [Compound 4ET-03-050B, N-(6-((8′-Methyl-1′,5′-dioxo-1′,2,3,3a,4,5′,6,6a-octahydro-1H,2′H-spiro[cyclopenta[c]pyrrole-5,3′-imidazo[1,5-a]pyridin]-6′-yl)amino)pyrimidin-4-yl)cyclopropanecarboxamide]	150 nM		
4.71 nM	0.5 nM				1.83 h	6.6		12.1 ×10⁻⁶ cm/s	80.6 ×10⁻⁶ cm/s			Cc1cc(Nc2cc(NC(=O)C3CC3)ncn2)c(=O)n2c1C(=O)NC21Cc2ccccc2[C@@H]1F (single isomer, unassigned) [Compound 4ET-03-052A, N-(6-((1′-Fluoro-8-methyl-1,5-dioxo-1,1′,3′,5-tetrahydro-2H-spiro[imidazo[1,5-a]pyridine-3,2′-inden]-6-yl)amino)pyrimidin-4-yl)cyclopropanecarboxamide]		19.2 nM	
58.4 nM	6.5 nM			1.1	7.67 h			57.8 ×10⁻⁶ cm/s	61.2 ×10⁻⁶ cm/s			CC1=CC2(CCC1)NC(=O)c1c(C)cc(Nc3cc(N)ncn3)c(=O)n12 (stereo not shown) [Compound 4ET-01-058, 6′-((6-Aminopyrimidin-4-yl)amino)-3,8′-dimethyl-2′H-spiro[cyclohexane-1,3′-imidazo[1,5-a]pyridin]-2-ene-1′,5′-dione]		10.9 nM	
89 nM	3.6 nM			5.6				7.3 ×10⁻⁶ cm/s	40.8 ×10⁻⁶ cm/s	6.42 µL/min/mg	3.6 h	Cc1cc(Nc2cc(NC(=O)CN3CCOCC3)ncn2)c(=O)n2c1C(=O)NC21CCCCC1 [Compound 4ET-02-007, N-(6-((8′-Methyl-1′,5′-dioxo-1′,5′-dihydro-2′H-spiro[cyclohexane-1,3′-imidazo[1,5-a]pyridin]-6′-yl)amino)pyrimidin-4-yl)-2-morpholinoacetamide]			microsomal CLint ([2]; Mouse liver microsomes (*), read-out: CLint rodent): 8.7 µL/min/mg; half-life ([2]; Mouse liver microsomes (*), Table 11a, read-out: Rodent liver microsomes t1/2): 2.65 h
